“And” between values parts separate entries of the source, which are not always exact repeats. Identical values can stand only once. Like-named read-outs stand apart in the source and are kept apart here.
Experiments:
mCB2R [1] = target: T1, mCB2R (Mus musculus, UniProt P47936); assay: biochemical; format: binding; set-up: from tissue; host or cells: spleen of male C57BL/6J mice; settings: mouse spleen membranes; read-out: pKi ± SEM mCB2R (converted)
mCB1R [2] = target: T2, mCB1R (Mus musculus, UniProt P47746); assay: biochemical
T2 construct: from tissue; host or cells: brain of male C57BL/6J mice

hCB1R [3] = target: T3, hCB1R (Homo sapiens, UniProt P21554); assay: cell-based
T3 construct: host or cells: CHO

hCB2R [4] = target: T4, hCB2R (Homo sapiens, UniProt P34972); assay: cell-based; format: cell-based; set-up: expressed in transfected cells; host or cells: Flp-In-293 (Invitrogen #R750-07), pcDNA5/FRT; settings: read-out: Emax ± SEM cAMP hCB2R
hCB2R [5] = target: T4, hCB2R; set-up: expressed in transfected cells; host or cells: Flp-In-293 (Invitrogen #R750-07), pcDNA5/FRT
hCB2R [6] = target: T4, hCB2R; assay: cell-based; format: cell-based; set-up: expressed in transfected cells; host or cells: Flp-In-293 (Invitrogen #R750-07), pcDNA5/FRT; settings: AtT20, read-out: Emax ± SEM GIRK hCB2R
hCB2R [7] = target: T4, hCB2R; assay: cell-based; format: cell-based; set-up: expressed in transfected cells; host or cells: Flp-In-293 (Invitrogen #R750-07), pcDNA5/FRT; settings: read-out: Emax ± SEM pERK hCB2R
hCB1R [8] = target: T3, hCB1R; assay: biochemical; format: binding
mCB1R [9] = target: T2, mCB1R; assay: biochemical; format: binding
hCB1R [10] = target: T3, hCB1R; assay: cell-based; format: cell-based; settings: AtT20, read-out: Emax ± SEM GIRK hCB1R
in vitro [11] = settings: both, human, microsomes, pH 7.4
C57BL6/J mice [12] = assay: Triad assay: antinociception; format: in vivo, mouse; settings: i.p., cumulative dosing, mice
in vitro [13] = settings: male, C57BL/6J, mouse, microsomes, pH 7.4
mCB2R [14] = target: T1, mCB2R; assay: biochemical; format: biochemical; set-up: from tissue; host or cells: spleen of male C57BL/6J mice
hCB1R [15] = target: T3, hCB1R; assay: cell-based; format: cell-based; settings: read-out: Emax ± SEM pERK hCB1R
[16] = tested on: AEA reuptake in HaCaT cells; assay: cells; format: cell-based, human; settings: Homo sapiens, HaCaT
C57BL6/J mice [17] = assay: Triad assay: hypothermia; format: in vivo, mouse; settings: i.p., cumulative dosing, mice
physchem = settings: pH 6.5, aqueous buffer, thermodynamic from solid
C57BL6/J mice [18] = assay: Triad assay: catalepsy; format: in vivo, mouse; settings: i.p., cumulative dosing, mice

T4 sequence (P34972 whole entry): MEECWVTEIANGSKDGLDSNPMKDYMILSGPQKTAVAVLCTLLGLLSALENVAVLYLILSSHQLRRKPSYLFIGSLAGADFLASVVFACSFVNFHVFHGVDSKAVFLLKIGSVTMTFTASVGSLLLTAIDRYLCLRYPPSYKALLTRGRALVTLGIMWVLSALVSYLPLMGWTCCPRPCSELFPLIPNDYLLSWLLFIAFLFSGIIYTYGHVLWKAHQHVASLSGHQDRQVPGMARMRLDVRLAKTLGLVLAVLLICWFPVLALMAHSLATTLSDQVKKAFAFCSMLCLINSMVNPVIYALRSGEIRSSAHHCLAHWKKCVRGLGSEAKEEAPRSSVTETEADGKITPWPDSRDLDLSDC
T2 sequence (P47746 whole entry): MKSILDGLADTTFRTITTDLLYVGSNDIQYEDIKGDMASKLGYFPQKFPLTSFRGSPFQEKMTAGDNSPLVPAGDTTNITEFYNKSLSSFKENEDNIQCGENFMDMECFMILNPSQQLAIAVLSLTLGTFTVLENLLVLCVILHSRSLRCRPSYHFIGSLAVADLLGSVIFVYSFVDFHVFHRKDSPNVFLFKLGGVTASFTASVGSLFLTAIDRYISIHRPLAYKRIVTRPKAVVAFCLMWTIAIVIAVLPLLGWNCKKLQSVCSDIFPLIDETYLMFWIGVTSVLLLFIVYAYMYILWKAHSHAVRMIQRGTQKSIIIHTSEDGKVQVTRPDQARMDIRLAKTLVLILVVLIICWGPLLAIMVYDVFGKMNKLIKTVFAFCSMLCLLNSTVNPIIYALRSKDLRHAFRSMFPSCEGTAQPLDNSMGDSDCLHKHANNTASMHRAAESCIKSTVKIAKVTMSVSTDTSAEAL
T3 sequence (P21554 whole entry): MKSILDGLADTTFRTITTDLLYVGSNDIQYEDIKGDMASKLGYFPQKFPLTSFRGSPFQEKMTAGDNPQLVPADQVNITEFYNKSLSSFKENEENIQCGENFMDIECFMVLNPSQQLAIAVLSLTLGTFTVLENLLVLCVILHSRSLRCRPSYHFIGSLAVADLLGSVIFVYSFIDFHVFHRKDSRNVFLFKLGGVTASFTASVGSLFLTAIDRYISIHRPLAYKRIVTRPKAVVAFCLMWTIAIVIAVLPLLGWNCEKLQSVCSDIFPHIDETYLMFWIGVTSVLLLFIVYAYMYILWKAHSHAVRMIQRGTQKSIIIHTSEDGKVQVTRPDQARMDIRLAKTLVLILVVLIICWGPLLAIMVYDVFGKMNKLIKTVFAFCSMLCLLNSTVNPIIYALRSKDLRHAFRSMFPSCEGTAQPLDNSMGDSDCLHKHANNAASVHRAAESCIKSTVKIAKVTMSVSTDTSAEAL
T1 sequence (P47936 whole entry): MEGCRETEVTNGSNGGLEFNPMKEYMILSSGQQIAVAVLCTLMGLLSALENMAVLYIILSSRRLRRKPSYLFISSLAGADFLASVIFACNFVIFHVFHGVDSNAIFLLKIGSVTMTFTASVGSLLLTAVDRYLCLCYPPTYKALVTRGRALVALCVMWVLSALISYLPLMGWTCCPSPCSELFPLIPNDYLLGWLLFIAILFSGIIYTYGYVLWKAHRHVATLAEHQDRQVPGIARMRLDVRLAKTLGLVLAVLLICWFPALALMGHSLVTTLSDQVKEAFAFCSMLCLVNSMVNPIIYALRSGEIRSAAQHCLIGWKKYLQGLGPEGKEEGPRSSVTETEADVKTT

Work on `CCCCCCC(C)(C)c1cc(O)c2c(c1)OC(C)(C)[C@@H]1CC=C(CO)C[C@@H]21` [HU210] yielded a Ki (mCB2R [1]) of 0.537 nM, an EC50 (mCB1R [2]; pEC50 ± SEM cAMP mCB1R) of 0.0933 nM and an Emax (mCB1R [2]; read-out: Emax cAMP mCB1R) of 65%. The EC50 (hCB1R [3]; pEC50 ± SEM cAMP hCB1R) was 0.263 nM, the Emax (hCB1R [3]; read-out: Emax ± SEM cAMP hCB1R) was 104 ± 3% and the Emax (hCB2R [4]) was 94 ± 0.1%. For the same compound, the “LogR GIRK” value (hCB2R [5]) was 7.19, the “LogR pERK” value (hCB2R [5]) was 8.22 and the “RE GIRK” value (hCB2R [5]) was 0.21. The “RE pERK” value (hCB2R [5]) was 0.15, the “pERK-GIRK bias factor (BF)” value (hCB2R [5]) was 0.71 and the “pERK-GIRK ΔΔlogR” value (hCB2R [5]) was -0.15. For the same compound, the “ΔLogR GIRK” value (hCB2R [5]) was -0.67, the “ΔLogR pERK” value (hCB2R [5]) was -0.82 and the Emax (hCB2R [6]) was 105 ± 4%. The Pct acceptor (PAMPA) was 0%, the Pct donor (PAMPA) was 23% and the Pct membrane (PAMPA, compound found in membranes) was 76%. The “Pampa Peff” value (membrane permeation coefficient) was 0.22 cm/s*10-6, the Emax (hCB2R [7]) was 105 ± 10% and the Ki (hCB1R [8]) was 0.282 nM. It also gave a Ki (mCB1R [9]) of 1.1 nM, an Emax (hCB1R [10]) of 97 ± 8% and a microsomal CLint (in vitro [11]) of 25 µL/min/mg. The “antinociception ED50 (95% CL)” value (C57BL6/J mice [12]) was 0.41 (0.31–0.54) mg kg^−1, the microsomal CLint (in vitro [13]) was 33 µL/min/mg and the EC50 (mCB2R [14]; mouse spleen, read-out: pEC50 ± SEM cAMP mCB2R (converted)) was 6.61 nM. The Emax (mCB2R [14]; read-out: Emax cAMP mCB2R) was 68%, the Emax (hCB1R [15]) was 96 ± 7% and the inhibition at 10 µM ([16]; read-out: AEA reuptake % inhibition, effect at 10 µM, HaCaT cells, 10 µM (values marked *)) was 44%. The IC50 ([16]; read-out: AEA reuptake IC50 (95% CI) HaCaT cells) was over 5000 nM, the “hypothermia ED50 (95% CL)” value (C57BL6/J mice [17]) was 0.35 (0.30–0.41) mg kg^−1 and the solubility kinetic (physchem) was < 0.2 µg/mL and < 0.5 µM. The “catalepsy ED50 (95% CL)” value (C57BL6/J mice [18]) was 0.19 (0.14–0.27) mg kg^−1.

Reference: article PMC5216056 (Nature Communications, 2017)
